Reference: US5378723A (priority 1994, dated 1995)
Entries after “also recorded” stand apart in the source; their conditions may differ. Read-outs that look alike come from different tables or passages of the source.

Assays:
cholinesterase (ChE) [1] = settings: cited from earlier work
cholinesterase (ChE) [2] = assay type: biochemical
neuromuscular AChR = settings: natural isomer; cited from earlier work
AChE = assay type: in vivo, rat; settings: for inhibiting properties and persistence: dialkylcarbamate vs mono-substituted carbamate
human plasma BChE = biological target: T1, human plasma BChE (Homo sapiens, UniProt P06276); test: biochemical
T1 construct: the plasma was separated and diluted; from tissue; host or cells: human plasma from freshly collected blood, diluted 1:125

human erythrocyte AChE = biological target: T2, human erythrocyte AChE (Homo sapiens, UniProt P22303); test: biochemical
T2 construct: Erythrocytes were washed three times in isotonic saline, lysed; from tissue; host or cells: human erythrocytes from freshly collected blood, washed, lysed in 0.5% Triton-X

[3] = AChE vs BChE, in vitro, used as biological standards in this art area
[4] = AChE vs BChE, in vitro, biological standards

T1 sequence (P06276 29-602): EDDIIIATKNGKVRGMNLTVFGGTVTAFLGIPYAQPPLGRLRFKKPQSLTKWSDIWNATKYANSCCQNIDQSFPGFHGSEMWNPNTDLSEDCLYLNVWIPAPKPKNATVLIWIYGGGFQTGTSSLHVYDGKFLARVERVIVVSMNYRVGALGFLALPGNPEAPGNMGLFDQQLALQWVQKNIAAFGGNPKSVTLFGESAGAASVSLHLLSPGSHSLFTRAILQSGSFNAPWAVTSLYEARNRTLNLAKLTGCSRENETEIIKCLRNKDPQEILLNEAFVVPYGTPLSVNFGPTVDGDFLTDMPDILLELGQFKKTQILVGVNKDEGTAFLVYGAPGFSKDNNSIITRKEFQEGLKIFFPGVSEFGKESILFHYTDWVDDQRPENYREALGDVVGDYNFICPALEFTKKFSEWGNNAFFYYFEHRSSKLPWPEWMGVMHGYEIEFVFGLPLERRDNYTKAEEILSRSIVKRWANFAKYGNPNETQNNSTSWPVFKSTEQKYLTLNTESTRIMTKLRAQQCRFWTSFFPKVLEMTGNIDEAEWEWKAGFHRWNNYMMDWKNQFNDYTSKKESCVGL
T2 sequence (P22303-2 with tags, fused parts or gaps limits assumed): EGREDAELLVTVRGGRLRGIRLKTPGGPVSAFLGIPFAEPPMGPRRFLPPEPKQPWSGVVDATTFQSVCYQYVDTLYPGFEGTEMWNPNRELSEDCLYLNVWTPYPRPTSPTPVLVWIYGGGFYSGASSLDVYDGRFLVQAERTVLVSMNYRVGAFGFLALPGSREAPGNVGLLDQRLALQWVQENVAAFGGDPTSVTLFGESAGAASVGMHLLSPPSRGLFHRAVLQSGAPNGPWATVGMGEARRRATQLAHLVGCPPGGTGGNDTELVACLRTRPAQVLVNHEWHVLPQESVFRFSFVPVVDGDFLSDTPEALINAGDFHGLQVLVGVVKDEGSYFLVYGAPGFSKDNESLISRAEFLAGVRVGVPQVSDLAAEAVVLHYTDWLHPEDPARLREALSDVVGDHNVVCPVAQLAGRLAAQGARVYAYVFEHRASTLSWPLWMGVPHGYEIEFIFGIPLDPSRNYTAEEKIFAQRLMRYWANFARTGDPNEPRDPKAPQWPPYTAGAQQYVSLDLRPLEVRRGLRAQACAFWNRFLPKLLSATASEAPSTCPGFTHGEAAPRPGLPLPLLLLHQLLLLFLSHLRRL

| Compound | IC50 (human plasma BChE) [µM] | IC50 (human erythrocyte AChE) [µM] | other results |
| --- | --- | --- | --- |
| CNC(=O)Oc1ccc2c(c1)[C@@]1(C)CCN(C)[C@H]1N2C [(+)-physostigmine] |  |  | inhibition of cholinesterase (ChE) (cholinesterase (ChE) [1]): only negligible inhibition; also recorded: only negligible ChE inhibitory activity |
| CNC(=O)Oc1ccc2c(c1)[C@]1(C)CCN[C@@H]1N2C [(-)-N(1)-Norphysostigmine] |  |  | inhibition of AChE and BChE in vitro, comparison (cholinesterase (ChE) [1]; [3]): similarly at similar concentrations; inhibition of AChE and BChE in vitro, comparison (cholinesterase (ChE) [2]; [4]): similarly at similar concentrations |
| CNC(=O)Oc1ccc2c(c1)[C@]1(C)CCN(C)[C@@H]1N2C [(-)-physostigmine] |  |  | inhibition of AChE and BChE in vitro, comparison (cholinesterase (ChE) [1]): similarly at similar concentrations; inhibition of cholinesterases in vitro and in vivo (cholinesterase (ChE) [1]): potent inhibitors of cholinesterases in vitro and in vivo; inhibition of AChE and BChE in vitro, comparison (cholinesterase (ChE) [2]): similarly at similar concentrations; properties at the neuromuscular AChR (neuromuscular AChR): blocking properties as well as agonist properties; duration of action of AChE inhibition (AChE; rat, in vivo, iv): duration of action is short; in vivo inhibition of AChE (AChE; rat, in vivo, iv): good inhibition properties |
| CNC(=O)Oc1ccc2c(c1)[C@]1(C)CCO[C@@H]1N2C [(-)-physovenine] | 0.0027 ± 0.0014 |  | inhibition of AChE and BChE in vitro, comparison (cholinesterase (ChE) [1]; [3]): similarly at similar concentrations; inhibition of cholinesterases in vitro and in vivo (cholinesterase (ChE) [1]; prior art): potent inhibitors of cholinesterases in vitro and in vivo; inhibition of AChE and BChE in vitro, comparison (cholinesterase (ChE) [2]; [4]): similarly at similar concentrations |
| CNC(=O)Oc1ccc2c(c1)[C@]1(C)CCS[C@@H]1N2C [(-)-thiaphysovenine] |  |  | inhibiting properties and persistence (AChE): good inhibition properties but does not persist; duration of action / persistence of AChE inhibition (AChE; rat plasma, i.v., 5 mg/kg, 480 minute period, FIG. 2): short duration of action; duration of action of AChE inhibition (AChE; rat plasma, i.v., FIG. 1): duration of action is short; in vivo inhibition of AChE (AChE; rat plasma, i.v., FIG. 1): good inhibition properties |
| CCCCNC(=O)Oc1ccc2c(c1)[C@]1(C)CCS[C@@H]1N2C [Ex. 1, (-)-3,3a, 8,8a-tetrahydro-3a, 8-dimethyl-2H-thieno-[2,3-b]indole-5-ol butyl carbamate] | 0.0007 ± 0.0001 | 0.0135 ± 0.0015 |  |
| CCCCCCCNC(=O)Oc1ccc2c(c1)[C@]1(C)CCS[C@@H]1N2C [Ex. 2, (-)-3,3a,8,8a-tetrahydro-3a,8-dimethyl-2H-thieno[2,3-b]indole-5-ol heptylcarbamate] | 0.0068 ± 0.0013 | 0.0257 ± 0.0028 |  |
| CN1c2ccc(OC(=O)Nc3ccccc3)cc2[C@]2(C)CCS[C@H]12 [Ex. 3, (-)-3,3a,8,8a-tetrahydro-3a,8-dimethyl-2H-thieno[2,3-b]indole-5-ol phenylcarbamate] | 1.66 ± 0.354 | 0.0272 ± 0.0071 |  |
| Cc1ccccc1NC(=O)Oc1ccc2c(c1)[C@]1(C)CCS[C@@H]1N2C [Ex. 4, (-)-3,3a,8,8a-tetrahydro-3a,8-dimethyl;-2H-thieno[2,3-b]indole-5-ol 2'-methylphenylcarbamate] | 5.28 ± 0.354 | 0.029 ± 0.0056 |  |
| CCc1ccccc1NC(=O)Oc1ccc2c(c1)[C@]1(C)CCS[C@@H]1N2C [Ex. 5, (-)-3,3a,8,8a-tetrahydro-3a,8-dimethyl-2H-thieno[2,3-b]indole-5-ol 2'-ethylphenylcarbamate] | 3.43 ± 0.259 | 0.0301 ± 0.0002 |  |
| CC(C)c1ccccc1NC(=O)Oc1ccc2c(c1)[C@]1(C)CCS[C@@H]1N2C [Ex. 6, (-)-3,3a,8,8a-tetrahydro-3a,8-dimethy-2H-thieno[2,3-b]indole-5-ol 2'-isopropylphenylcarbamate] | 0.963 ± 0.106 | 0.0255 ± 0.0033 |  |
| CC(C)c1ccc(NC(=O)Oc2ccc3c(c2)[C@]2(C)CCS[C@@H]2N3C)cc1 [Ex. 7, (-)-3,3a,8,8a-tetrahydro-3a,8-dimethyl-2H-thieno[2,3-b]indole-5-ol 4'-isopropylphenylcarbamate] | 0.0453 ± 0.0124 | > 10 |  |
| Cc1ccc(NC(=O)Oc2ccc3c(c2)[C@]2(C)CCS[C@@H]2N3C)c(C)c1 [Ex. 8, (-) -3,3a,8,8a-tetrahydro-3a,8-dimethyl-2H-thieno[2,3-b]indole-5-ol 2',4'-dimethylphenylcarbamate] | 1.87 ± 0.291 | 0.0263 ± 0.0038 |  |
| CN(C)C(=O)Oc1ccc2c(c1)[C@]1(C)CCS[C@@H]1N2C [Ex. 9, (-)-3,3a,8,8a-tetrahydro-3a,8-dimethyl-2H-thieno[2,3-b]indole-5-ol N,N-dimethylcarbamate] | 0.0225 ± 0.0001 | 0.197 ± 0.0341 | inhibiting properties and persistence (AChE): longlasting inhibiting properties |
